Consider six compounds from ChEMBL document CHEMBL2073949, “Dehydroepiandrosterone sulfate (DHEAS): identification of a carrier protein in human liver and brain” (FEBS Lett, 1998).

Each structure is given as a SMILES string.

Holding throughout (type): functional, cell-based, Oocyte
Data set [1] addresses T1, Solute carrier organic anion transporter family member 1A2 (OATP1A2) (Homo sapiens, UniProt P46721).
T1 sequence (P46721 whole entry): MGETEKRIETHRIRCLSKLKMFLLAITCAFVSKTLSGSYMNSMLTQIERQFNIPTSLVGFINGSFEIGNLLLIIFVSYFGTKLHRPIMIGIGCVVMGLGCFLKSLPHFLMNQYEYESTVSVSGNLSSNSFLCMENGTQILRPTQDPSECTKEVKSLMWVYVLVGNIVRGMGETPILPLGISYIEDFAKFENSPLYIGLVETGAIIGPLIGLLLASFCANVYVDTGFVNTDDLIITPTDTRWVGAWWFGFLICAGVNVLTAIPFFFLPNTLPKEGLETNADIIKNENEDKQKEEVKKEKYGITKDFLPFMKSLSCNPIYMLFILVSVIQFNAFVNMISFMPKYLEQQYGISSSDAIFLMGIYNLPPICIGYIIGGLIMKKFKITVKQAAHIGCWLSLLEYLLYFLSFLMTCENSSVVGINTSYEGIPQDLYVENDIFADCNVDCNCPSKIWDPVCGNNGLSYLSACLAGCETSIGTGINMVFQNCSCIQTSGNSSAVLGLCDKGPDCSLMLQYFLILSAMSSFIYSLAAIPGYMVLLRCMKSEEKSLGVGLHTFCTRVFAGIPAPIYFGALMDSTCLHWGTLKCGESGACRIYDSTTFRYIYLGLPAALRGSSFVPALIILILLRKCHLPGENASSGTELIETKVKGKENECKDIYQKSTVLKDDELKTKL
The experiment in a line: TP_TRANSPORTER: inhibition of DHEAS uptake (DHEAS: 5 uM, TCDC: 100 uM) in Xenopus laevis oocytes. The settings on record: Xenopus laevis oocytes expressing OATP1A2 (SLCO1A2), probe DHEAS (5 uM).

Data set [2] has as its target T1, Solute carrier organic anion transporter family member 1A2 (OATP1A2). Briefly: TP_TRANSPORTER: inhibition of DHEAS uptake (DHEAS: 5 uM, Dexamethasone: 100 uM) in Xenopus laevis oocytes. The settings on record: Xenopus laevis oocytes expressing OATP1A2 (SLCO1A2), probe DHEAS (5 uM).
Data set [3] shares this target. The experiment in a line: TP_TRANSPORTER: uptake in Xenopus laevis oocytes. The note with it: Xenopus laevis oocytes expressing OATP1A2 (SLCO1A2).
Data set [4] has the same target. The experiment in a line: TP_TRANSPORTER: inhibition of DHEAS uptake (DHEAS: 5 uM, Estradiol-3-sulfate: 100 uM) in Xenopus laevis oocytes. The settings on record: Xenopus laevis oocytes expressing OATP1A2 (SLCO1A2), probe DHEAS (5 uM).
Data set [5] has the same target. Briefly: TP_TRANSPORTER: inhibition of DHEAS uptake (DHEAS: 5 uM, TUDC: 100 uM) in Xenopus laevis oocytes. The settings on record: Xenopus laevis oocytes expressing OATP1A2 (SLCO1A2), probe DHEAS (5 uM).
For data set [6] the target is unchanged. The experiment in a line: TP_TRANSPORTER: inhibition of DHEAS uptake (DHEAS: 5 uM, E1S: 100 uM) in Xenopus laevis oocytes. The note with it: Xenopus laevis oocytes expressing OATP1A2 (SLCO1A2), probe DHEAS (5 uM).

Regarding `C[C@H](CCC(=O)NCCS(=O)(=O)O)[C@H]1CC[C@H]2[C@@H]3[C@H](O)C[C@@H]4C[C@H](O)CC[C@]4(C)[C@H]3CC[C@]12C` [TAUROCHENODEOXYCHOLATE], 100 µM produced 75.2% inhibition in data set [1].
Compound `C[C@@H]1C[C@H]2[C@@H]3CCC4=CC(=O)C=C[C@]4(C)[C@@]3(F)[C@@H](O)C[C@]2(C)[C@@]1(O)C(=O)CO` [DEXAMETHASONE] displayed an inhibition at 100 µM in data set [2] of 97.3%.
With `C[C@]12CC[C@H](OS(=O)(=O)O)CC1=CC[C@@H]1[C@@H]2CC[C@]2(C)C(=O)CC[C@@H]12` [PRASTERONE SULFURIC ACID], the Km in data set [3] came out at 6.6 µM.
Compound `C[C@]12CC[C@@H]3c4ccc(OS(=O)(=O)O)cc4CC[C@H]3[C@@H]1CC[C@@H]2O` had an inhibition at 100 µM in data set [4] of 92.9%.
`C[C@H](CCC(=O)NCCS(=O)(=O)O)[C@H]1CC[C@H]2[C@@H]3[C@@H](O)C[C@@H]4C[C@H](O)CC[C@]4(C)[C@H]3CC[C@]12C` [TAURURSODIOL]: in data set [5], at 100 µM the inhibition was 85.7%.
In data set [6], `C[C@]12CC[C@@H]3c4ccc(OS(=O)(=O)O)cc4CC[C@H]3[C@@H]1CCC2=O` [ESTRONE SULFURIC ACID] gave an inhibition at 100 µM of 82.3%.

For orientation: inhibition means the change of the read-out against control, counted positive when it falls. A low value points to little suppression. The term Km denotes the substrate concentration at which the rate is half of its maximum.
